Source: paper PMC5365251, “Biophysical assay for tethered signaling reactions reveals tether-controlled activity for the phosphatase SHP-1” (Science Advances, 2017)

How the values were obtained:
PEG12-ITIM peptide = experiment: Solution phosphatase assay (inorganic phosphate release); type: biochemical, mouse; conditions: PEG12-ITIM 10 μM, pH 7.4, 10°C, BIOMOL Green; fit of progress curves
Description: Purified SHP-1 was mixed with PEG12-ITIM peptide at 10 μM, in 10 mM Hepes (pH 7.4), 150 mM NaCl, 3 mM EDTA, 0.005% Surfactant P20, and 1 mM dithiothreitol (Sigma). Temperature was regulated to 10°C with a thermocycler heat block, and the production of inorganic phosphate was measured at the indicated time points using BIOMOL Green (Enzo Life Sciences).
The resulting progress curves (Fig. 1B) were fit using a standard mathematical model ([20]) based on the following reaction scheme F+S^*⇌koffkonCkcat⇀F+S where F is the phosphatase, S* is the phosphorylated peptide substrate, S is the unphosphorylated peptide product, and C is the intermediate enzyme-substrate complex. This reaction scheme corresponds to the following coupled ODEs ∂F/∂t=−konFS*+(koff+kcat)C∂S*/∂t=−konFS*+koffC∂C/∂t=konFS*−(koff+kcat)C∂S/∂t=kcatC with the following conservation equations for the enzyme and substrate, FT=E+CST=S*+C+S where FT is the initial SHP-1 concentration and ST is the initial concentration of phosphorylated substrate. A common assumption for in vitro solution-based enzyme assays is that the enzyme-substrate complex (C) changes on a […] time scale compared to the time scale of product formation (that is, ∂C/∂t ≈ 0). Using this quasi–steady-state approximation, which is valid when E ≪ S + Km ([46], [47]), we find C = FTS^∗/(Km + S^∗). […] The initial condition is S(t = 0) = 0. […]

[1] = test system: phosphorylated ITIM peptide on PEG28; experiment: Calculation of local concentration, dephosphorylation time and rate enhancement from fitted parameters; design: species or system mouse
Description: The tethered enzymatic SPR assay also produced an estimate for the reach parameter (L), which was 23 nm. This number corresponds to a phosphorylated substrate experiencing a maximum local SHP-1 concentration of 45 μM when tethered, compared to, for example, a concentration of 1 μM in solution (Fig. 2A) or in the cytoplasm of immune cells (see Discussion).
Activatory and inhibitory immune receptors are both known to cluster in the plasma membrane ([11]–[15]), but the extent and consequences of clustering remain poorly understood. In the absence of clustering, a phosphorylation site on the cytoplasmic tails of these receptors will experience the low ~1-μM concentration of cytoplasmic SHP-1 [based on 280,000 copies of SHP-1 in cytotoxic T cells ([30]) with a radius of 5 μm]. Tethering of SHP-1 to nonclustered immune receptors at distances >50 nm results in even lower concentrations (for example, 0.04 μM when receptors are 50-nm apart), but when clustered within 5 nm, we can now estimate that this phosphorylated site will experience an SHP-1 concentration of 45 μM (Fig. 8A). […] These concentrations are calculated using the formula for σ with L = 23 nm for r = 5 and 50 nm (see Materials and Methods). We note that this is based on a reach of L = 23 nm, which represents SHP-1 bound to an ITIM on PEG28 dephosphorylating another ITIM on PEG28.
The combined effects induced by SHP-1 tethering on allosteric activation (20-fold) and local substrate concentration (45-fold) can be summarized by calculating the dephosphorylation rate ([SHP-1] × kcat* ).
A key component of the models (described below) is the calculation of the local substrate concentration that a tethered enzyme experiences. We assume that the motion of an unbound phosphorylated peptide (state A) and the motion of SHP-1 bound to a phosphorylated peptide (state B) can both be approximated by the worm-like chain model, which is a widely used polymer model. […]

- increase in SHP-1 (local substrate) concentration on tethering to clustered receptors ([1]; solution 1 μM versus tethered and clustered 45 μM): 45 fold
Substance: SHP-1: murine SHP-1 tyrosine phosphatase with an N-terminal 6× His tag, expressed in E. coli
- k*cat (= kcat/Km), overall catalytic rate in solution (PEG12-ITIM peptide): 6800 M⁻¹ s⁻¹
- increase in overall dephosphorylation rate when tethered and clustered ([1]; [SHP-1] × kcat*, 45 μM × 0.0118 versus 1 μM × 0.000603 μM^-1 s^-1): 900 fold
- reduction of reaction time by tethering ([1]; time to 50% dephosphorylation with versus without tethering): 125 fold
